Source: patent US10412965B2, “Use of the antifungal ilicicolin H in agriculture” (AGROBIOLOGICS, LLC, priority 2015, dated 2019)
Values after ≈ are worked out from the molar mass of the structure shown.

Legend:
Pythium dissimile = assay type: cell-based; details: 20 ppm
Alternaria solani [1] = assay type: cell-based; details: 20 ppm
Botryotinia fuckeliana = assay type: cell-based; details: 20 ppm
Gibberella zeae = assay type: cell-based; details: 20 ppm
Phytophthora infestans [2] = assay type: in vivo; details: 200 ppm
Zymoseptoria tritici [3] = assay type: in vivo; details: 100 ppm
Uromyces viciae-fabae = assay type: in vivo; details: 100 ppm
Phytophthora infestans [4] = assay type: in vivo; details: tomato, preventative, disease control relative to untreated check
Plasmopara viticola = assay: Leaf disk test at different concentrations, grapevine; assay type: in vivo; details: preventative, disease control relative to untreated check
[5] = test system: Blumeria graminis f. sp. tritici (Erysiphe graminis); assay: Leaf disk test at different concentrations, wheat; assay type: in vivo; details: preventative, disease control relative to untreated check
Puccinia recondita = assay: Leaf disk test at different concentrations, wheat; assay type: in vivo; details: for Leaf-piece test rates (20 ppm), efficacy / Leaf-piece test rates (60 ppm), efficacy / Leaf-piece test rates (200 ppm), efficacy: wheat, disease control relative to untreated check
[6] = test system: Phaeosphaeria nodorum (Septoria nodorum); assay: Leaf disk test at different concentrations, wheat; assay type: in vivo; details: preventative, disease control relative to untreated check
Pyrenophora teres = assay: Leaf disk test at different concentrations, barley; assay type: in vivo; details: preventative, disease control relative to untreated check
Alternaria solani [7] = assay: Leaf disk test at different concentrations, tomato; assay type: in vivo; details: preventative, disease control relative to untreated check
[8] = test system: Magnaporthe grisea (Pyricularia oryzae); assay type: in vivo; details: rice, preventative, disease control relative to untreated check
Pythium ultimum = assay: Liquid-culture fungal growth inhibition test; assay type: cell-based; details: antifungal activity relative to untreated check, photometric, 2-7 days
[9] = test system: Botryotinia fuckeliana (Botrytis cinerea); assay: Liquid-culture fungal growth inhibition test; assay type: cell-based
[10] = test system: Glomerella lagenarium (Colletotrichum lagenarium); assay: Liquid-culture fungal growth inhibition test; assay type: cell-based
[11] = test system: Mycosphaerella arachidis (Cercospora arachidicola); assay: Liquid-culture fungal growth inhibition test; assay type: cell-based
Zymoseptoria tritici [12] = assay: Liquid-culture fungal growth inhibition test; assay type: cell-based
Gaeumannomyces graminis = assay: Liquid-culture fungal growth inhibition test; assay type: cell-based
[13] = test system: Monographella nivalis (Microdochium nivale); assay: Liquid-culture fungal growth inhibition test; assay type: cell-based
Fusarium culmorum = assay: Liquid-culture fungal growth inhibition test; assay type: cell-based; details: antifungal activity relative to untreated check, photometric, 2-7 days
Description: Suspensions of mycelial fragments or conidia of a fungal species, prepared either freshly from liquid cultures of the fungus or from cryogenic storage, were directly mixed into nutrient broth. DMSO solutions of Ilicicolin H (max. 10 mg/ml) were diluted with 0.025% Tween 20 by a factor of 50, and 10μ L of this solution was pipetted into a microtitre plate (96-well format). The nutrient broth containing the fungal spores/mycelia fragments was then added to give a final concentration of Ilicicolin H. The test plates were incubated in the dark at 24° C. and 96% relative humidity. The inhibition of fungal growth was determined photometrically after 2-7 days, depending on the pathosystem, and percent antifungal activity relative to the untreated check was calculated.

[14] = test system: Thanatephorus cucumeris (Rhizoctonia solani); assay: Liquid-culture fungal growth inhibition test; assay type: cell-based
Sclerotinia sclerotiorum = assay: Liquid-culture fungal growth inhibition test; assay type: cell-based
HeLa cells = details: cited from earlier work
mice = details: cited from earlier work
[15] = 0.2 ppm, antifungal activity relative to untreated check, photometric, 2-7 days
[16] = 2 ppm, antifungal activity relative to untreated check, photometric, 2-7 days
[17] = 20 ppm, antifungal activity relative to untreated check, photometric, 2-7 days

C/C=C/[C@H]1C(C(=O)c2c(O)c(-c3ccc(O)cc3)c[nH]c2=O)C=C(C)[C@H]2CC[C@H](C)C[C@@H]21 (stereo partly shown) [Ilicicolin H]
Disease control efficacy (average of two repeat experiments) (Pythium dissimile): 0 | activity in mycelial growth test (Pythium dissimile): not active | Disease control efficacy (average of two repeat experiments) (Alternaria solani [1]): 0 | activity in mycelial growth test (Alternaria solani [1]): not active | Disease control efficacy (average of two repeat experiments) (Botryotinia fuckeliana): 99 | activity in mycelial growth test (Botryotinia fuckeliana): active | activity in mycelial growth test (Gibberella zeae): not active | Disease control efficacy (average of two repeat experiments) (Gibberella zeae; artificial media, visual 3 band score, 4 to 14 days after inoculation): 0 | activity in leaf-piece assay (Phytophthora infestans [2]; tomato): active | Disease control efficacy (average of two repeat experiments) (Phytophthora infestans [2]; tomato leaf piece, applied prior to inoculation, visual 3 band score): 99 | Disease control efficacy (average of two repeat experiments) (Zymoseptoria tritici [3]): 99 | activity in leaf-piece assay (Zymoseptoria tritici [3]): active | Disease control efficacy (average of two repeat experiments) (Uromyces viciae-fabae): 49 | activity in leaf-piece assay (Uromyces viciae-fabae): active in one rep | Leaf-piece test rates (20 ppm), efficacy (Phytophthora infestans [4]; 20 ppm): 0% | Leaf-piece test rates (60 ppm), efficacy (Phytophthora infestans [4]; 60 ppm): 0% | Leaf-piece test rates (200 ppm), efficacy (Phytophthora infestans [4]; 200 ppm): 0% | Leaf-piece test rates (20 ppm), efficacy (Plasmopara viticola; 20 ppm): 0% | Leaf-piece test rates (60 ppm), efficacy (Plasmopara viticola; 60 ppm): 0% | Leaf-piece test rates (200 ppm), efficacy (Plasmopara viticola; 200 ppm): 0% | Leaf-piece test rates (20 ppm), efficacy ([5]; 20 ppm): 0% | Leaf-piece test rates (60 ppm), efficacy ([5]; 60 ppm): 0% | Leaf-piece test rates (200 ppm), efficacy ([5]; 200 ppm): 0% | Leaf-piece test rates (20 ppm), efficacy (Puccinia recondita; curative): 0% | Leaf-piece test rates (20 ppm), efficacy (Puccinia recondita; preventative): 0% | Leaf-piece test rates (60 ppm), efficacy (Puccinia recondita; curative): 0% | Leaf-piece test rates (60 ppm), efficacy (Puccinia recondita; preventative): 50% | Leaf-piece test rates (200 ppm), efficacy (Puccinia recondita; curative): 0% | Leaf-piece test rates (200 ppm), efficacy (Puccinia recondita; preventative): 90% | activity in leaf disk test (Puccinia recondita; wheat leaf disks): demonstrated activity | Leaf-piece test rates (20 ppm), efficacy ([6]; 20 ppm): 0% | Leaf-piece test rates (60 ppm), efficacy ([6]; 60 ppm): 0% | Leaf-piece test rates (200 ppm), efficacy ([6]; 200 ppm): 0% | Leaf-piece test rates (20 ppm), efficacy (Pyrenophora teres; 20 ppm): 0% | Leaf-piece test rates (60 ppm), efficacy (Pyrenophora teres; 60 ppm): 0% | Leaf-piece test rates (200 ppm), efficacy (Pyrenophora teres; 200 ppm): 0% | Leaf-piece test rates (20 ppm), efficacy (Alternaria solani [7]; 20 ppm): 0% | Leaf-piece test rates (60 ppm), efficacy (Alternaria solani [7]; 60 ppm): 0% | Leaf-piece test rates (200 ppm), efficacy (Alternaria solani [7]; 200 ppm): 0% | Leaf-piece test rates (20 ppm), efficacy ([8]; 20 ppm): 0% | Leaf-piece test rates (60 ppm), efficacy ([8]; 60 ppm): 0% | Leaf-piece test rates (200 ppm), efficacy ([8]; 200 ppm): 0% | Liquid-culture test rates (0.2 ppm), efficacy (Pythium ultimum; 0.2 ppm): 0% | Liquid-culture test rates (2 ppm), efficacy (Pythium ultimum; 2 ppm): 0% | Liquid-culture test rates (20 ppm), efficacy (Pythium ultimum; 20 ppm): 0% | activity in liquid-culture test [9]: demonstrated activity | Liquid-culture test rates (0.2 ppm), efficacy [9, 15]: 0% | Liquid-culture test rates (2 ppm), efficacy [9, 16]: 70% | Liquid-culture test rates (20 ppm), efficacy [9, 17]: 100% | activity in liquid-culture test [10]: demonstrated activity | Liquid-culture test rates (0.2 ppm), efficacy [10, 15]: 0% | Liquid-culture test rates (2 ppm), efficacy [10, 16]: 50% | Liquid-culture test rates (20 ppm), efficacy [10, 17]: 100% | activity in liquid-culture test [11]: demonstrated activity | Liquid-culture test rates (0.2 ppm), efficacy [11, 15]: 0% | Liquid-culture test rates (2 ppm), efficacy [11, 16]: 100% | Liquid-culture test rates (20 ppm), efficacy [11, 17]: 100% | activity in liquid-culture test (Zymoseptoria tritici [12]): demonstrated activity | Liquid-culture test rates (0.2 ppm), efficacy (Zymoseptoria tritici [12]; [15]): 90% | Liquid-culture test rates (2 ppm), efficacy (Zymoseptoria tritici [12]; [16]): 100% | Liquid-culture test rates (20 ppm), efficacy (Zymoseptoria tritici [12]; [17]): 100% | activity in liquid-culture test (Gaeumannomyces graminis): demonstrated activity | Liquid-culture test rates (0.2 ppm), efficacy (Gaeumannomyces graminis; [15]): 0% | Liquid-culture test rates (2 ppm), efficacy (Gaeumannomyces graminis; [16]): 90% | Liquid-culture test rates (20 ppm), efficacy (Gaeumannomyces graminis; [17]): 100% | activity in liquid-culture test [13]: demonstrated activity | Liquid-culture test rates (0.2 ppm), efficacy [13, 15]: 0% | Liquid-culture test rates (2 ppm), efficacy [13, 16]: 100% | Liquid-culture test rates (20 ppm), efficacy [13, 17]: 100% | Liquid-culture test rates (0.2 ppm), efficacy (Fusarium culmorum; 0.2 ppm): 0% | Liquid-culture test rates (2 ppm), efficacy (Fusarium culmorum; 2 ppm): 0% | Liquid-culture test rates (20 ppm), efficacy (Fusarium culmorum; 20 ppm): 0% | activity in liquid-culture test [14]: demonstrated activity | Liquid-culture test rates (0.2 ppm), efficacy [14, 15]: 0% | Liquid-culture test rates (2 ppm), efficacy [14, 16]: 50% | Liquid-culture test rates (20 ppm), efficacy [14, 17]: 70% | activity in liquid-culture test (Sclerotinia sclerotiorum): demonstrated activity | Liquid-culture test rates (0.2 ppm), efficacy (Sclerotinia sclerotiorum; [15]): 0% | Liquid-culture test rates (2 ppm), efficacy (Sclerotinia sclerotiorum; [16]): 20% | Liquid-culture test rates (20 ppm), efficacy (Sclerotinia sclerotiorum; [17]): 50% | ED50 (cytotoxicity) (HeLa cells): 2 µg/mL (≈ 4.61 µM) | acute toxicity (mice): low acute toxicity
